32 compounds from EP4094762A1, “TREATMENT OF NEUROLOGICAL INDICATIONS” (UCL Business Ltd, priority 2021, dated 2022) can be followed below.

In the experiment the target is T1, P2Y1 receptor (Homo sapiens, UniProt P47900).
T1 construct: expressed in transfected cells
T1 sequence (P47900 whole entry): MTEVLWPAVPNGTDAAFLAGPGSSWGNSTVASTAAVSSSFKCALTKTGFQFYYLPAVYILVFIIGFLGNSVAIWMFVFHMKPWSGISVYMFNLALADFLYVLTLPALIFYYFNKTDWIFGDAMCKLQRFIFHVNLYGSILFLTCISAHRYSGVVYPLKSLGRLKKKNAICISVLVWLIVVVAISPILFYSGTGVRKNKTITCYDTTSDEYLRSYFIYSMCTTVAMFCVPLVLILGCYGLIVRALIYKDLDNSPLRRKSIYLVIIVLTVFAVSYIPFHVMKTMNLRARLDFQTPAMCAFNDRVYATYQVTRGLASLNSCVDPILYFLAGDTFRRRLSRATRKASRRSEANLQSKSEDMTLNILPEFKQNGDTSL
Briefly: Cell based HTRF assay measuring IP1 accumulation; antagonism of the P2Y1 agonist MRS2365. Conditions: rounded to nearest whole number; read-out: IC50 IP1. How it is done:
IC50 values were determined using a cell based assay in stably transfected cells overexpressing the P2Y1 receptor. The assay system is a high throughput […] assay measuring accumulation of the intracellular messenger inositol monophosphate (IP1), generated intracellularly following activation of P2Y1.
P2Y1 overexpressing cells were maintained in T175 flasks. The day before the assay, these cells were split and 20µl cell suspension transferred to each well of white 384-well assay plates at a cell density of 0.5x10^6 cells/mL. Plates were pulse centrifuged, then incubated overnight at 37°C / 5% CO2 prior to assay.
On day of assay, medium was removed from cells and replaced with stimulation buffer. […] Positive control antagonist curves with standard compounds were included on each plate. Plates were incubated with antagonists for 1 hour prior to addition of 5nM of the agonist MRS2365, dispensed using a Bravo liquid handler. Following agonist addition, plates were incubated for 60 minutes prior to assay. Both incubations were carried out at 37°C / 5% CO2.
For the assay, IP1 accumulation was quantified using the IPOne kit according to manufacturer's instructions. In short, a standard curve was prepared for IP1 quantification, and cells lysed using kit lysis buffer. Assay reagents were added to the lysates, and incubated for 1 hour at room temperature without spinning or shaking. Plates were analysed on a BMG Pherastar plate reader, and IP1 signal generated in cells interpolated from the standard curve.
For `CC(C)(C)c1ccccc1Sc1ncccc1NC(=O)Nc1ccc(OC(F)(F)F)cc1` [S3], the IC50 (as a rule, the concentration at which inhibition is half-maximal) is 57 nM. On to `CC(C)(C)c1ccccc1Oc1ncccc1NC(=O)Nc1ccc2c(c1)OC(F)(F)O2` [S6], for which the IC50 worked out at 76 nM.

Turning to `Cc1c(Oc2ncccc2NC(=O)Nc2ccc(OC(F)(F)F)cc2)cccc1-c1ccccc1` [S7], the IC50 was 99 nM.

As to `O=C(Nc1ccc(OC(F)(F)F)cc1)Nc1cccnc1Oc1ccccc1S(F)(F)(F)(F)F` [S10], the IC50 was determined as 124 nM. As to `Cc1c(Oc2ncccc2NC(=O)Nc2ccc(OC(F)(F)F)cc2)cccc1N(C)C` [S12], the IC50 is 151 nM.

For `Cc1cnc(Oc2ccccc2C(C)(C)C)c(NC(=O)Nc2ccc(OC(F)(F)F)cc2)c1` [S13], the half-inhibitory concentration (IC50) was determined as 151 nM.

For `O=C(Nc1ccc(OC(F)(F)F)cc1F)Nc1cccnc1Oc1ccccc1S(F)(F)(F)(F)F` [S14], the IC50 is 173 nM. Then `CC(C)c1ccc(C(F)F)cc1Oc1ncccc1NC(=O)Nc1ccc(OC(F)(F)F)cc1` [S15], with 179 nM; and `Cc1c(Oc2ncccc2NC(=O)Nc2ccc(OC(F)(F)F)cc2)cccc1-c1ccc(C#N)cc1` [S16], with 202 nM; and `CC(C)(C)c1ccccc1Oc1ncccc1NC(=O)Nc1nc2ccc(Cl)nc2s1` [S17], with 209 nM. For the compound `CC(C)(C)c1ccccc1Oc1ncncc1NC(=O)Nc1ccc(OC(F)(F)F)cc1` [S18], the IC50 was 236 nM. For `CC(C)(C)c1ccccc1Oc1ncc(C#N)cc1NC(=O)Nc1ccc(OC(F)(F)F)cc1` [S19], the IC50 was found to be 264 nM.

As for `CC(C)(C)c1cccc(Oc2ncccc2NC(=O)Nc2ccc(OC(F)(F)F)cc2)c1` [S20], the IC50 is 276 nM.

In the case of `CC(C)(C)c1ccccc1Oc1ncccc1NC(=O)NCc1ccc(OC(F)(F)F)cc1` [S21], the IC50 was 301 nM. As to `Cc1ccnc(Oc2ccccc2C(C)(C)C)c1NC(=O)Nc1ccc(OC(F)(F)F)cc1` [S22], the IC50 came out at 302 nM.

Turning to `Cc1c(Oc2ncccc2NC(=O)Nc2ccc(OC(F)(F)F)cc2)cccc1N1CCOCC1` [S23], the IC50 is 332 nM. Then `Cc1cccc(Oc2ncccc2NC(=O)Nc2ccc(OC(F)(F)F)cc2)c1Br` [S24], with 398 nM; and `CC(C)(C)c1ccccc1Oc1ncc(-c2ccc3c(c2)OCCN3)cc1NC(=O)Nc1ccc(OC(F)(F)F)cc1` [S26], with 493 nM. As for `Cc1c(Oc2ncccc2NC(=O)Nc2ccc(OC(F)(F)F)cc2)cccc1-c1cccc(C#N)c1` [S27], the IC50 turned out to be 512 nM. As for `Cc1c(Br)cccc1Oc1ncccc1NC(=O)Nc1ccc(OC(F)(F)F)cc1` [S28], the IC50 was 513 nM.

On to `CC(C)(C)c1ccccc1Oc1ncc(Br)cc1NC(=O)Nc1ccc(OC(F)(F)F)cc1` [S29], for which the half-maximal inhibitory concentration (IC50) turned out to be 514 nM. Consider `CC(C)c1cccc(C(F)F)c1Oc1ncccc1NC(=O)Nc1ccc(OC(F)(F)F)cc1` [S30], for which the concentration for half-maximal inhibition (IC50) was found to be 574 nM. Regarding `O=C(Nc1ccc(OC(F)(F)F)cc1)Nc1cccnc1Oc1cccc(N2CCCCC2)c1` [S31], the IC50 is 607 nM. Consider `O=C(Nc1ccc(OC(F)(F)F)cc1)Nc1cccnc1Oc1ccccc1N1CCCCC1` [S33], for which the IC50 stood at 632 nM. Regarding `CC(C)(C)c1ccccc1Oc1ncccc1NC(=O)NCCCc1ccccc1` [S34], the half-maximal inhibitory concentration (IC50) stood at 640 nM. In the case of `Cc1c(Oc2ncccc2NC(=O)Nc2ccc(OC(F)(F)F)cc2)cccc1N1CCCC1` [S35] it was 655 nM. Regarding `Cc1c(Oc2ncccc2NC(=O)Nc2ccc(OC(F)(F)F)cc2)cccc1N1CCC2(CC1)COC2` [S36], the IC50 is 732 nM. Regarding `Cc1c(Oc2ncccc2NC(=O)Nc2ccc(OC(F)(F)F)cc2)cccc1-c1ccc2ccn(C)c2c1` [S37], the IC50 came out at 778 nM. Regarding `O=C(Nc1ccc(OC(F)(F)F)cc1)Nc1cccnc1Oc1cccc(-c2ccccc2)c1` [S39], the IC50 is 827 nM. For the compound `O=C(Nc1ccc(OC(F)(F)F)cc1)Nc1cccnc1Oc1cccc(OCc2ccccc2)c1` [S40], the IC50 was found to be 924 nM.

As for `O=C(Nc1ccc(OC(F)(F)F)cc1)Nc1cccnc1Oc1ccccc1Br` [S41], the IC50 came to 925 nM. In the case of `CC(C)(C)c1ccc(O)c(Oc2ncccc2NC(=O)Nc2ccc(OC(F)(F)F)cc2)c1` [S42] it was 948 nM.
